Assays:
[1] = test system: osteoblasts; assay: Cell-Titer assay of cellular ATP levels, osteoblasts; type: cell-based; details: 48 hours
Method: MG-63 human osteosarcoma cell lines were obtained from the American Type Culture Collection (ATCC, Manassas, VA, USA). Cells were cultured in α-MEM supplemented with 10% FCS, 100 U/ml penicillin, and […] streptomycin at 37° C. in a humidified atmosphere incubator containing 5% CO2. Before treatment with ML228, 5,000 and 50,000 cells/well were seeded in a 96 or 24 well-plate, respectively.
The live/dead viability assay (cat #04511-1KT-F Merck, Germany) was used according to the manufacturer's protocol. Briefly, cells were incubated in a medium supplemented with the indicated concentrations of ML228 for 48 hours. Fluorescein diacetate (6.6 μg/mL) and propidium iodide (5 μg/mL) (Merck, NJ, USA) were prepared in DMEM and added to the cells. Confocal images were captured after addition of the dyes with ZEISS LSM 900, Laser Scanning Microscope. Fluorescence readouts were obtained with ex/em of 490/515 nm and 535/617 nm for green and red, respectively. Cellular ATP levels were quantified using the cell-titer assay (Promega, WI, USA cat #G7570).

[2] = test system: HIF-1α, Collagen-I protein levels in fibroblast cells; assay: Western blot of HIF-1α and Collagen-I in fibroblast lysate; type: cell-based, human
Method: Cells at a density of 50,000 cells/well in a 24-well plate were cultured for 2 days with variable ML228 concentrations. Cells were sonicated and lysed in a buffer containing 20 mM Tris-HCL pH=7.5 with a protease inhibitor (Abcam, Cambridge, UK) or a protease inhibitor from Merck (539134, Merck). Equal amounts (1 μg) of total protein were loaded and tested using Western blotting. Samples were divided for testing native samples and denaturative samples, which were dependent on each antibody recognition sites. Samples size was separated by a 6% sodium dodecyl sulfate (SDS) gel and transferred to nitrocellulose membranes that was further incubated overnight with primary antibodies of HIF-1α, and β-tubulin. As for detecting Collagen-I, samples were prepared in native conditions absent of SDS and β-mercaptoethanol. Thereafter, samples were separated by a native gel. Detection of Collagen-I was done in 6% native gel enabling observation of non-denatured structural collagen and preventing thermal degradation of the heat sensitive collagen. After extensive washing with TBST (Tris-buffered saline supplemented with 0.1% Tween-20), the membrane was further incubated with an HRP-conjugated secondary antibody for 1 hour. Chemiluminescence values were read after the addition of ECL substrate in a ChemiDoc imager (Biorad CA, USA).

[3] = test system: NIH/3T3 cell line; assay: Cell confluence / number of cells per image in NIH/3T3 cells; type: cell-based, mouse; details: 0.63-5 μM ML228, 48 hours, p<0.0001
Method: (§1) Embryonic mouse fibroblast NIH/3T3 cell line (ATCC) were seeded at a concentration of 50*10^3 cells/well on 96 well glass bottom plate (P96-1.5H-N, Cellvis) for the immunofluorescence experiment and on cell culture microplate, 96 well, PS, F-Bottom (655090, greiner) for the viability experiment. The cells were cultured with Dulbecco's modified Eagle's medium (DMEM) supplemented with 10% fetal calf serum, 1% Penicillin-Streptomycin solution and 1% L-glutamine (All purchased from Rhenium). At 24 hours post seeding, cells were treated for another 48 hours by replacing them with the cell medium supplemented with a serial dilution (5-0.02 μM, factor dilution of 2) of the ML228, Daprodustat, Enarodustat, Molidustat, Vadadustat or Roxadustat molecules dissolved in DMSO. The final DMSO concentration in the cell medium was 0.01%. Cells were maintained in an incubator at 37° C. in a humidified atmosphere containing 5% CO2.
Image acquisition and quantification were performed by Incucyte SX5 (Sartorius) using software version 2022B Rev2. A standard scan was done for 9 images per well using 20× objective, 2 optical modules (green at excitation/emission of 453-485 nm/494-533 nm in 300 msec acquisition time, and near-IR at excitation/emission of 648-674 nm/685-756 nm in 400 msec acquisition time, including Phase channel) following immunofluorescence protocol. For the image analysis, 2-6 replicates per condition were used. Using the Basic Analyzer mode, “Phase Object Confluence (%)” was acquired using the Phase channel. This measurement is the percentage of the image area occupied by cells. “Total Collagen-I Integrated Intensity Per Image (GCU×μm^2/Image)” was acquired using the green optical module. GCU stands for Green calibrated Unit, while this measurement is the total sum of the Collagen-I objects' fluorescent intensity in the image. “#Cells (Per image)” was acquired by the near-IR optical module. This measurement was calculated by counting the number of nuclei per image.
Multiple comparisons were performed by ordinary one-way ANOVA followed by Dunnett's post-hoc statistical hypothesis for comparing each condition mean to the control mean. Statistical analysis was done using GraphPad Prism version 10.0.0 for Windows, GraphPad Software, Boston, Massachusetts USA, worldwideweb(dot)graphpad(dot)com. For statistical analysis, significance was set as (*) p≤0.05; (**) p≤0.01; (***) p≤0.001; (****) p≤0.0001 and (ns; not significant) p>0.05.

[4] = test system: NIH/3T3 cell line; assay: Alamar blue viability assay in NIH/3T3 cells; type: cell-based, mouse; details: 0.31-5 μM ML228, 48 hours, p<0.0001
Method: as §1, with “Cells were maintained in an incubator at 37° C. in a humidified atmosphere containing 5% CO2.” left out
For the ML228 experiment, at 48 hours post treatment, cells were stained by replacing the cell medium with Alamar blue (Enco, Petach Tikvah, Israel) diluted 1:10 in the cell medium, and incubated for 4 hours (37° C., 5% CO2). Then, fluorescence readouts were obtained using the Spark multimode microplate reader (Tecan) at excitation/emission 540±20 nm/590±20 nm. Cell viability was calculated as the percentage difference of treated cells with ML228 relative to the control cells at 590±20 nm emission.

c1ccc(-c2ccc(CNc3nc(-c4ccccn4)nnc3-c3ccccc3)cc2)cc1 [ML228, N-([1,1′-Biphenyl]-4-ylmethyl)-6-phenyl-3-(2-pyridinyl)-1,2,4-triazin-5-amine]
IC50 ([1]; Homo sapiens, Osteoblast, read-out: IC50 (ATP levels relative to non-treated cells)): 567 nM
metabolically active cell viability as measured by ATP levels ([1]; increasing ML228 concentrations): decrease in metabolically active cell viability
HIF-1α protein level ([2]; increasing concentrations of ML228, 48 hours): higher levels
Collagen-I protein level ([2]; increasing concentrations of ML228, 48 hours, native gel): higher levels
HIF-1α protein level ([2]; low doses of ML228, 48 hours): no HIF-1α protein is observed
cell confluence vs untreated cells [3]: significant reduction
viability compared to untreated cells [4]: lower viability
